PubChem BioAssay (NCI)
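The compound was tested at five concentrations on cells cultured in 96-well plates, with a 48-hour exposure period. Definition used: TGI = concentration required for complete inhibition of growth.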

Columns and labels:
Assay in all cases: DTP human tumour cell line panel, 48 h
[1] = test system: U251 CNS
[2] = test system: SF-268 CNS
[3] = test system: UO-31 renal
[4] = test system: COLO 205 colon
[5] = test system: HT29 colon
[6] = test system: HOP-92 NSCLC
[7] = test system: UACC-62 melanoma
[8] = test system: SNB-75 CNS
[9] = test system: HS 578T breast
[10] = test system: MDA-MB-231 breast
[11] = test system: SK-OV-3 ovarian
[12] = test system: TK-10 renal
[13] = test system: A498 renal
[14] = test system: CCRF-CEM leukemia
[15] = test system: HCT-15 colon
[16] = test system: OVCAR-5 ovarian
[17] = test system: UACC-257 melanoma
[18] = test system: SN12C renal
[19] = test system: NCI-H460 lung
[20] = test system: SK-MEL-2 melanoma
[21] = test system: SR leukemia
[22] = test system: MOLT-4 leukemia
[23] = test system: K-562 leukemia
[24] = test system: PC-3 prostate
[25] = test system: BT-549 breast
[26] = test system: HCC-2998 colon
[27] = test system: MDA-N
[28] = test system: NCI-H522 lung
[29] = test system: SNB-19 CNS
[30] = test system: MDA-MB-435
[31] = test system: IGROV1 ovarian
[32] = test system: KM12 colon
[33] = test system: T-47D breast
[34] = test system: NCI-H23 lung
[35] = test system: 786-0 renal
[36] = test system: OVCAR-3 ovarian
[37] = test system: LOX IMVI melanoma
[38] = test system: HOP-62 NSCLC
[39] = test system: EKVX NSCLC
[40] = test system: DU-145 prostate
[41] = test system: SF-295 CNS
[42] = test system: SW-620 colon
[43] = test system: NCI/ADR-RES ovarian
[44] = test system: SK-MEL-5 melanoma
[45] = test system: RXF 393 renal
[46] = test system: OVCAR-8 ovarian
[47] = test system: HCT-116 colon
[48] = test system: MCF7 breast
[49] = test system: ACHN renal
[50] = test system: A549 NSCLC
[51] = test system: OVCAR-4 ovarian
[52] = test system: CAKI-1 renal
[53] = test system: M14 melanoma
[54] = test system: SK-MEL-28 melanoma
[55] = test system: MALME-3M melanoma
[56] = test system: NCI-H226 lung
[57] = test system: RPMI-8226 leukemia
[58] = test system: SF-539 CNS
[59] = test system: HL-60(TB) leukemia

With `O=C1c2ccccc2C(=O)N1CCCCCCNOCCCN1C(=O)c2ccccc2C1=O` as the compound, how does the TGI [1] read?
The TGI was > 100 µM.

And the TGI [2]?
The TGI was > 100 µM.

What about the TGI [3] of the same compound?
The TGI was > 100 µM.

And the TGI [4]?
Its TGI is > 100 µM.

What about the TGI [5] of the same compound?
The TGI was > 100 µM.

And the TGI [6]?
Its TGI is > 100 µM.

What about the TGI [7] of the same compound?
The TGI was 50.3 µM.

And the TGI [8]?
Its TGI is > 100 µM.

And the TGI [9]?
Its TGI is > 100 µM.

And the TGI [10]?
The TGI was > 100 µM.

What about the TGI [11] of the same compound?
The TGI was > 100 µM.

And the TGI [12]?
The TGI was > 100 µM.

What about the TGI [13] of the same compound?
The TGI was 93.8 µM.

What about the TGI [14] of the same compound?
Its TGI is > 100 µM.

And the TGI [15]?
The TGI was > 100 µM.

What about the TGI [16] of the same compound?
The TGI was > 100 µM.

And the TGI [17]?
Its TGI is 86 µM.

And the TGI [18]?
Its TGI is > 100 µM.

What about the TGI [19] of the same compound?
The TGI was > 100 µM.

What about the TGI [20] of the same compound?
Its TGI is 47.8 µM.

And the TGI [21]?
The TGI was > 100 µM.

What about the TGI [22] of the same compound?
The TGI was 38.7 µM.

And the TGI [23]?
Its TGI is 98.2 µM.

What about the TGI [24] of the same compound?
The TGI was > 100 µM.

What about the TGI [25] of the same compound?
The TGI was 85.4 µM.

What about the TGI [26] of the same compound?
The TGI was > 100 µM.

And the TGI [27]?
The TGI was > 100 µM.

What about the TGI [28] of the same compound?
Its TGI is 79.3 µM.

What about the TGI [29] of the same compound?
The TGI was > 100 µM.

And the TGI [30]?
Its TGI is 74.7 µM.

And the TGI [31]?
The TGI was > 100 µM.

What about the TGI [32] of the same compound?
Its TGI is 78.8 µM.

And the TGI [33]?
The TGI was 65 µM.

And the TGI [34]?
Its TGI is 97.1 µM.

And the TGI [35]?
Its TGI is > 100 µM.

And the TGI [36]?
The TGI was > 100 µM.

And the TGI [37]?
Its TGI is > 100 µM.

And the TGI [38]?
Its TGI is > 100 µM.

What about the TGI [39] of the same compound?
The TGI was > 100 µM.

What about the TGI [40] of the same compound?
The TGI was > 100 µM.

And the TGI [41]?
Its TGI is > 100 µM.

And the TGI [42]?
Its TGI is > 100 µM.

And the TGI [43]?
Its TGI is 70 µM.

And the TGI [44]?
The TGI was 30.8 µM.

What about the TGI [45] of the same compound?
The TGI was > 100 µM.

What about the TGI [46] of the same compound?
The TGI was > 100 µM.

What about the TGI [47] of the same compound?
The TGI was > 100 µM.

And the TGI [48]?
Its TGI is 88.4 µM.

What about the TGI [49] of the same compound?
The TGI was > 100 µM.

And the TGI [50]?
Its TGI is > 100 µM.

And the TGI [51]?
Its TGI is 93.3 µM.

And the TGI [52]?
Its TGI is > 100 µM.

And the TGI [53]?
The TGI was 61.4 µM.

What about the TGI [54] of the same compound?
Its TGI is > 100 µM.

What about the TGI [55] of the same compound?
Its TGI is > 100 µM.

What about the TGI [56] of the same compound?
The TGI was > 100 µM.

What about the TGI [57] of the same compound?
Its TGI is 99.4 µM.

`Cc1ccc2c(c1)[nH]c(=S)n2C=C1C(=O)CC(C)(C)CC1=O` was tested. Which TGI [1] did it give?
The TGI was > 100 µM.

What about the TGI [2] of the same compound?
The TGI was > 100 µM.

What about the TGI [3] of the same compound?
The TGI was > 100 µM.

And the TGI [4]?
Its TGI is > 100 µM.

And the TGI [5]?
Its TGI is > 100 µM.

And the TGI [6]?
The TGI was > 100 µM.

And the TGI [7]?
The TGI was > 100 µM.

What about the TGI [8] of the same compound?
The TGI was > 100 µM.

And the TGI [9]?
Its TGI is > 100 µM.

And the TGI [10]?
Its TGI is > 100 µM.

What about the TGI [11] of the same compound?
Its TGI is > 100 µM.

What about the TGI [12] of the same compound?
Its TGI is > 100 µM.

And the TGI [13]?
The TGI was > 100 µM.

What about the TGI [14] of the same compound?
Its TGI is > 100 µM.

What about the TGI [15] of the same compound?
Its TGI is > 100 µM.

And the TGI [16]?
Its TGI is > 100 µM.

And the TGI [17]?
The TGI was > 100 µM.

What about the TGI [18] of the same compound?
The TGI was > 100 µM.

And the TGI [19]?
Its TGI is > 100 µM.

What about the TGI [20] of the same compound?
Its TGI is > 100 µM.

What about the TGI [21] of the same compound?
The TGI was > 100 µM.

What about the TGI [22] of the same compound?
The TGI was > 100 µM.

And the TGI [24]?
The TGI was > 100 µM.

What about the TGI [58] of the same compound?
The TGI was > 100 µM.

What about the TGI [25] of the same compound?
Its TGI is > 100 µM.

And the TGI [26]?
Its TGI is > 100 µM.

What about the TGI [27] of the same compound?
The TGI was > 100 µM.

And the TGI [28]?
Its TGI is > 100 µM.

And the TGI [29]?
Its TGI is > 100 µM.

What about the TGI [30] of the same compound?
The TGI was > 100 µM.

What about the TGI [31] of the same compound?
Its TGI is > 100 µM.

And the TGI [32]?
The TGI was > 100 µM.

What about the TGI [33] of the same compound?
The TGI was > 100 µM.

What about the TGI [34] of the same compound?
The TGI was > 100 µM.

And the TGI [35]?
The TGI was > 100 µM.

What about the TGI [36] of the same compound?
The TGI was > 100 µM.

What about the TGI [37] of the same compound?
Its TGI is > 100 µM.

What about the TGI [38] of the same compound?
Its TGI is > 100 µM.

What about the TGI [39] of the same compound?
The TGI was > 100 µM.

What about the TGI [40] of the same compound?
The TGI was > 100 µM.

And the TGI [41]?
Its TGI is > 100 µM.

What about the TGI [42] of the same compound?
Its TGI is > 100 µM.

And the TGI [43]?
Its TGI is > 100 µM.

And the TGI [44]?
Its TGI is > 100 µM.

What about the TGI [45] of the same compound?
The TGI was > 100 µM.

What about the TGI [46] of the same compound?
Its TGI is > 100 µM.

What about the TGI [47] of the same compound?
Its TGI is > 100 µM.

What about the TGI [48] of the same compound?
Its TGI is > 100 µM.

And the TGI [49]?
Its TGI is > 100 µM.

What about the TGI [50] of the same compound?
Its TGI is > 100 µM.

What about the TGI [51] of the same compound?
The TGI was > 100 µM.

What about the TGI [52] of the same compound?
The TGI was > 100 µM.

And the TGI [53]?
The TGI was > 100 µM.

And the TGI [54]?
Its TGI is > 100 µM.

And the TGI [59]?
The TGI was > 100 µM.

What about the TGI [56] of the same compound?
Its TGI is > 100 µM.
